In patent publication US8658605B2, “Bioactivity composition of Reevesia formosana” (priority 2011, dated 2014):

Columns and labels:
[1] = system: MCF-7 (human breast adenocarcinoma); experiment: MTS reduction assay, cytotoxicity on MCF-7 cells; format: cell-based; conditions: average of three repeats
Method: (§1) MCF-7 (human breast adenocarcinoma), NCI-H460 (non-small-cell lung cancer) and HepG2 (liver hepatocellular cells) were incubated in a modified Dulbecco's Eagle's medium with 10% FBS and nonessential amino acid ([…], Inc) in an incubator with 37° C., 5% CO2/Air. Human cancer cell lines were planted in 96-well plates, and each well which contained the 100 μl medium were planted one of MCF-7 and NCI-H460 with a cell amount of 6500, 2500 and 7500. After overnight incubation, each cell line was administered at least 8 testing compounds with different concentrations individually, and subsequently the cell lines were incubated in the incubator for 72 hours. According to a method of MTS reduction assay, 5-(3-carboxymethoxyphenyl)-2-(4,5-dimethylthiazoyl)-3-(4-sulfophenyl)tetrazolium salt (MTS) was applied on estimating alive cell numbers, and 0.1% DMSO (Promega, Madison, Wis., USA) was a control group because DMSO controlled a result of percentage, the result could be a dose-response curve of IC50 value. […] The IC50 value was an average of three times repeats. The 10000/well HepG2 cells were planted on a 96-well plate and were gone through the same experiences.

[2] = system: NCI-H460 (non-small-cell lung cancer); experiment: MTS reduction assay, cytotoxicity on NCI-H460 cells; format: cell-based, human; conditions: NCI-H460, 72 hours, average of three repeats
Method: as §1

[3] = system: HepG2 (liver hepatocellular cells); experiment: MTS reduction assay, cytotoxicity on HepG2 cells; format: cell-based, human; conditions: HepG2, 72 hours, average of three repeats
Method: as §1

reevesioside C [reevesioside C (3)]
IC50 ([1]; MCF-7, 72 hours): 2040 ± 173 nM | IC50 [2]: 208 ± 15.6 nM | IC50 [3]: 3740 ± 261 nM

reevesioside B [reevesioside B (2)]
IC50 ([1]; MCF-7, 72 hours): 3520 ± 72 nM | IC50 [2]: 431 ± 45.1 nM | IC50 [3]: 4760 ± 202 nM

reevesioside D [reevesioside D (4)]
IC50 ([1]; MCF-7, 72 hours): 36400 ± 2580 nM | IC50 [2]: 3900 ± 316 nM | IC50 [3]: > 500000 nM

C[C@@H]1C[C@H]2OCO[C@H]2[C@H](O[C@H]2CC[C@]3(C=O)[C@H]4CC[C@]5(C)[C@@H](C6=CC(=O)OC6)CC[C@]5(O)[C@@H]4CC[C@]3(O)C2)O1 [reevesioside A (1), reevesioside A]
IC50 ([1]; MCF-7, 72 hours): 63.2 ± 2.1 nM | IC50 [2]: 19.3 ± 0.5 nM | IC50 [3]: 368 ± 29.9 nM

COc1cc2c3c(c4cc(OC)c(OC)cc4c2cc1OC)CN1CCC[C@@H]1C3 [tylophorine, reference compound]
IC50 ([1]; Homo sapiens, MCF7, MCF-7, 72 hours): 236 ± 11 nM | IC50 ([2]; Homo sapiens): 233 ± 24 nM | IC50 ([3]; Homo sapiens): 215 ± 14 nM

COC1C(OC2CCC3(C=O)C4CCC5(C)C(C6=CC(=O)OC6)CCC5(O)C4CCC3(O)C2)OC(C)C(O)C1O (stereo not drawn) [epi-reevesioside F (7), epi-reevesioside F]
IC50 ([1]; MCF-7, 72 hours): 34.1 ± 5.5 nM | IC50 [2]: 10.4 ± 0.5 nM | IC50 [3]: 996 ± 92.6 nM

reevesioside F [reevesioside F (6)]
IC50 ([1]; MCF-7, 72 hours): 72 ± 8.1 nM | IC50 [2]: 20.3 ± 0.4 nM | IC50 [3]: 836 ± 33.2 nM

reevesioside E [reevesioside E (5)]
IC50 ([1]; MCF-7, 72 hours): 11800 ± 2240 nM | IC50 [2]: 1770 ± 35.4 nM | IC50 [3]: 40500 ± 6430 nM
